Laboratory results as given in patent publication US20180280326A1, “MEDICAMENT FOR PREVENTING OR INHIBITING ACUTE KIDNEY INJURY” (National Cerebral and Cardiovascular Center, priority 2015, published 2018).

Experiments:
[1] = test system: AT2 receptor deficient mice, CDDP induced acute kidney injury; assay: CDDP induced acute kidney injury-inhibiting effects on AT2 receptor deficient mice; type: in vivo; details: male AT2 receptor deficient mice; CDDP 15 mg/kg i.p.; oral 30 mg/kg per day from 3 days before; 72 hours after CDDP
Description: To 8- to 12-week-old male AT2 receptor deficient mice (n=3 or 5 to 7), 15 mg/kg of cisplatin (CDDP, disease group) or 30 mL/kg of phosphate buffered saline (PBS, normal group) was intraperitoneally administered.
A 0.2 mg/mL aqueous solution of Compound C in 0.5% carboxymethylcellulose (CMC) was prepared and orally administered so that Compound C was at a dose of 30 mg/kg per day from 3 days before the start of the experiment, and the mice were subjected to the experiment. To the control group, the same dose of 0.5% CMC aqueous solution was administered.
At 72 hours after CDDP administration, incision in the abdomen was performed under sevoflurane anesthesia, and the whole blood was collected from the abdominal great vein using a syringe. The blood was centrifuged, and the supernatant (serum) was collected. The serum was stored at −20 to −80° C. Immediately before dissection, spot urine was collected from each mouse.
Using the measurement kits, urinary albumin (Alb) and urinary creatinine (Cr) were measured for the calculation of the urinary Alb/Cr ratio, and also blood urea nitrogen (BUN) was measured. The results are shown in FIG. 3 (urinary Alb/Cr ratio) and FIG. 4 (BUN).

human renal cells = details: LPS as an endotoxin acting on human renal cells; Non Patent Literature 6; cited from earlier work

Compound	inhibition of acute kidney injury caused by CDDP (urinary Alb/Cr ratio, FIG. 3; BUN, FIG. 4) [1]	level of IL-6 (human renal cells)	level of TNF-α (human renal cells)
CCN(CC)C(=O)[C@H](Cc1ccc(NC(=O)c2ccccc2)cc1)C(=O)NS(=O)(=O)c1ccc2ccccc2c1 [Compound C, (2S)-2-[4-(benzoylamino)benzyl]-N,N-diethyl-N′-(2-naphthylsulfonyl)malonamide]	not effective		
CCCCOC(=O)NS(=O)(=O)c1sc(CC(C)C)cc1-c1ccc(Cn2ccnc2)cc1 [Example C21]		lowered	lowered
